Test results published in the supplement of paper PMC4862054.

Tests used:
Conditions in all cases: incubation time: 72 h
CAL-120 [1] = test: normalised viability (% of control), CellTiter-Blue; higher = more viable cells (about 100 = DMSO control)
Procedure: (§1)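 DSRT, CellTiter-Blue viability, 72 h incubation. Signal is normalised to DMSO and benzethonium chloride controls. Value is the normalised response at dose 3.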

CAL-148 [2] = test: as above
Procedure: as §1

HCC1143 [3] = test: as above
Procedure: as §1

HCC1599 [4] = test: as above
Procedure: as §1

HCC1937 [5] = test: as above
Procedure: as §1

MDA-MB-231 [6] = test: as above
Procedure: as §1

MDA-MB-453 [7] = test: as above
Procedure: as §1

MDA-MB-468 [8] = test: as above
Procedure: as §1

CAL-148 [9] = test: as above; remark: listed apart in the source
Procedure: (§2)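 DSRT, CellTiter-Blue viability, 72 h incubation. Signal is normalised to DMSO and benzethonium chloride controls. Value is the normalised response at dose 7.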

CAL-51 [10] = test: as above
Procedure: as §2

CAL-85-1 = test: as above
Procedure: as §2

DU-4475 [11] = test: as above
Procedure: as §2

HDQ-P1 [12] = test: as above
Procedure: as §2

MDA-MB-453 [13] = test: as above; remark: listed apart in the source
Procedure: as §2

BT-549 = test: normalised viability (% of control), CellTiter-Blue; higher = more viable cells (100 = DMSO, 0 = benzethonium chloride kill control)
How it was run: (§3)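 After 72 h on compound-loaded 384-well plates, breast cancer cell lines received 2.5 µl CellTiter-Blue reagent for 2 h at 37 °C. Fluorescence at 560/590 nm was scaled per plate so that vehicle was 100 and a positive kill control was 0. The value stands for normalised viability at a single listed concentration of the series.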

CAL-120 [14] = test: as above
How it was run: as §3

CAL-148 [15] = test: as above
How it was run: as §3

CAL-51 [16] = test: as above
How it was run: as §3

DU-4475 [17] = test: as above
How it was run: as §3

HCC1143 [18] = test: as above
How it was run: as §3

HCC1599 [19] = test: as above
How it was run: as §3

HCC1937 [20] = test: as above
How it was run: as §3

HDQ-P1 [21] = test: as above
How it was run: as §3

Hs578T = test: as above
How it was run: as §3

MDA-MB-231 [22] = test: as above
How it was run: as §3

MDA-MB-436 = test: as above
How it was run: as §3

MDA-MB-453 [23] = test: as above
How it was run: as §3

MDA-MB-468 [24] = test: as above
How it was run: as §3

MFM-223 = test: as above
How it was run: as §3

SK-BR-3 = test: as above
How it was run: as §3

CCN(CC)CCCC(C)Nc1c2ccc(Cl)cc2nc2ccc(OC)cc12 (stereo not given) [Mepacrine]
Conditions	normalised viability [%]
BT-549, 0.099 nM	96.1
BT-549, 1 nM	86.5
CAL-51 [10], 99 nM	96.2
CAL-51 [10], 1000 nM	103
CAL-51 [16], 0.099 nM	90.8
CAL-51 [16], 1 nM	97.2
CAL-85-1, 99 nM	97.8
CAL-85-1, 1000 nM	90.3
CAL-120 [1], 9.9 nM	117
CAL-120 [1], 100 nM	104
CAL-120 [14], 0.099 nM	114
CAL-120 [14], 1 nM	97.7
CAL-148 [2], 0.99 nM	116
CAL-148 [2], 10 nM	107
CAL-148 [9], 99 nM	122
CAL-148 [9], 1000 nM	81.4
CAL-148 [15], 0.099 nM	115
CAL-148 [15], 1 nM	96.9
DU-4475 [11], 99 nM	97.3
DU-4475 [11], 1000 nM	84.3
DU-4475 [17], 0.099 nM	93.5
DU-4475 [17], 1 nM	111
HCC1143 [3], 9.9 nM	130
HCC1143 [3], 100 nM	106
HCC1143 [18], 0.099 nM	108
HCC1143 [18], 1 nM	98.1
HCC1599 [4], 9.9 nM	88.2
HCC1599 [4], 100 nM	88.9
HCC1599 [19], 0.099 nM	102
HCC1599 [19], 1 nM	96.2
HCC1937 [5], 9.9 nM	99.4
HCC1937 [5], 100 nM	87.4
HCC1937 [20], 0.099 nM	94.7
HCC1937 [20], 1 nM	86
HDQ-P1 [12], 99 nM	86.9
HDQ-P1 [12], 1000 nM	84.9
HDQ-P1 [21], 0.099 nM	115
HDQ-P1 [21], 1 nM	108
Hs578T, 0.099 nM	113
Hs578T, 1 nM	127
MDA-MB-231 [6], 9.9 nM	95.2
MDA-MB-231 [6], 100 nM	89.8
MDA-MB-231 [22], 0.099 nM	95.4
MDA-MB-231 [22], 1 nM	101
MDA-MB-436, 0.099 nM	112
MDA-MB-436, 1 nM	101
MDA-MB-453 [7], 0.99 nM	98.4
MDA-MB-453 [7], 10 nM	100
MDA-MB-453 [13], 99 nM	97.2
MDA-MB-453 [13], 1000 nM	101
MDA-MB-453 [23], 0.099 nM	98
MDA-MB-453 [23], 1 nM	106
MDA-MB-468 [8], 9.9 nM	110
MDA-MB-468 [8], 100 nM	105
MDA-MB-468 [24], 0.099 nM	108
MDA-MB-468 [24], 1 nM	101
MFM-223, 0.099 nM	103
MFM-223, 1 nM	96
SK-BR-3, 0.099 nM	100
SK-BR-3, 1 nM	101

C[C@H]1C[C@@H]2[C@H]([C@@H](O)C[C@@]3(C)[C@H]2CC[C@]3(O)C(=O)CO)[C@@]2(C)C=CC(=O)C=C12 [Methylprednisolone]
Conditions	normalised viability [%]
BT-549, 1 nM	93
CAL-51 [10], 1000 nM	102
CAL-51 [16], 1 nM	103
CAL-85-1, 1000 nM	97
CAL-120 [1], 100 nM	79.8
CAL-120 [14], 1 nM	81.9
CAL-148 [2], 10 nM	91.3
CAL-148 [9], 1000 nM	108
CAL-148 [15], 1 nM	105
DU-4475 [11], 1000 nM	104
DU-4475 [17], 1 nM	95.4
HCC1143 [3], 100 nM	86.6
HCC1143 [18], 1 nM	93.3
HCC1599 [4], 100 nM	108
HCC1599 [19], 1 nM	114
HCC1937 [5], 100 nM	97.7
HCC1937 [20], 1 nM	83.7
HDQ-P1 [12], 1000 nM	109
HDQ-P1 [21], 1 nM	97.7
Hs578T, 1 nM	122
MDA-MB-231 [6], 100 nM	120
MDA-MB-231 [22], 1 nM	103
MDA-MB-436, 1 nM	108
MDA-MB-453 [7], 10 nM	100
MDA-MB-453 [13], 1000 nM	69.3
MDA-MB-453 [23], 1 nM	95.4
MDA-MB-468 [8], 100 nM	96.6
MDA-MB-468 [24], 1 nM	101
MFM-223, 1 nM	92.7
SK-BR-3, 1 nM	92.2
